Source: PubChem BioAssay (NCI)
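Five compound concentrations were applied to cells in 96-well plates for 48 hours; endpoints were derived by simple linear interpolation of the resulting dose-response curve. GI50 marks 50% less growth. At the TGI there is no net growth.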

Legend:
Test in all cases: NCI anticancer screen, dose series, 48 h
[1] = test system: MDA-MB-435
[2] = test system: NCI-H460 lung
[3] = test system: HS 578T breast
[4] = test system: OVCAR-5 ovarian
[5] = test system: SK-MEL-28 melanoma
[6] = test system: HCT-15 colon
[7] = test system: SR leukemia
[8] = test system: SK-OV-3 ovarian
[9] = test system: 786-0 renal
[10] = test system: OVCAR-8 ovarian
[11] = test system: IGROV1 ovarian
[12] = test system: ACHN renal
[13] = test system: HOP-62 NSCLC
[14] = test system: SNB-75 CNS
[15] = test system: CCRF-CEM leukemia

Row | Structure (SMILES) | TGI [1] | TGI [2] | TGI [3] | TGI [4] | TGI [5] | TGI [6] | TGI [7] | TGI [8] | TGI [9] | TGI [10] | TGI [11] | TGI [12] | GI50 [1] | GI50 [4] | TGI [13] | TGI [14] | GI50 [6] | GI50 [7] | TGI [15]
1 | O=Cc1ccc(-c2ccc(S(=O)(=O)O)cc2)o1 | > 100 µM | > 100 µM | > 100 µM | > 100 µM | > 100 µM | > 100 µM | > 100 µM | > 100 µM | > 100 µM | > 100 µM | > 100 µM | > 100 µM | – | – | – | – | – | – | –
2 | COc1ccc2[nH]c3c(O)c(-c4c(C)cc5c([nH]c6ccc(OC)cc65)c4O)c(C)cc3c2c1 | 8 µM | 7.52 µM | 11.5 µM | 7.34 µM | 9.64 µM | 8.2 µM | 8.34 µM | – | 8.62 µM | 8.39 µM | 8.04 µM | 8.15 µM | 4.34 µM | 3.82 µM | 8.35 µM | 7.18 µM | 4.2 µM | 3.97 µM | –
3 | CC1=NNC(=O)C1C1C=C(c2c[nH]c3ccccc23)OC1=O (centres undefined) | > 100 µM | > 100 µM | > 100 µM | > 100 µM | > 100 µM | > 100 µM | – | > 100 µM | > 100 µM | > 100 µM | > 100 µM | > 100 µM | – | – | > 100 µM | > 100 µM | – | – | > 100 µM
4 | O=C1NC(N2CCCCC2)=N/C1=C\c1ccco1 | > 100 µM | – | > 100 µM | > 100 µM | > 100 µM | > 100 µM | > 100 µM | > 100 µM | > 100 µM | > 100 µM | > 100 µM | > 100 µM | – | – | > 100 µM | – | – | – | > 100 µM
5 | COc1ccc(C2=NN(C(=O)c3ccc(Cl)cc3)C(O)(c3cc(F)c(Cl)cc3Cl)C2)cc1 (centres undefined) | > 100 µM | > 100 µM | > 100 µM | > 100 µM | > 100 µM | > 100 µM | – | > 100 µM | > 100 µM | > 100 µM | > 100 µM | > 100 µM | – | – | > 100 µM | > 100 µM | – | – | > 100 µM
6 | CCOC(=O)/C(=C\c1c(C)[nH]c2ccccc12)P(=O)(OCC)OCC | > 100 µM | > 100 µM | > 100 µM | > 100 µM | > 100 µM | > 100 µM | > 100 µM | > 100 µM | > 100 µM | > 100 µM | > 100 µM | > 100 µM | – | – | > 100 µM | > 100 µM | – | – | –
7 | COc1cc(/C=N/n2c(C)n[nH]c2=O)cc(OC)c1OC | > 100 µM | > 100 µM | 49.7 µM | > 100 µM | > 100 µM | > 100 µM | – | > 100 µM | > 100 µM | > 100 µM | – | > 100 µM | – | – | > 100 µM | > 100 µM | – | – | > 100 µM
8 | CC(C)(C)OC(=O)C1/C(=C/CBr)CN1C(=O)OC(C)(C)C (centres undefined) | 29.7 µM | 34.9 µM | 49.1 µM | 35.2 µM | 46.9 µM | 23.3 µM | – | 38.2 µM | 23.2 µM | 44.2 µM | 26.2 µM | 33 µM | – | – | 31.9 µM | – | – | – | 6.22 µM
9 | C[C@H]1S[C@H](c2c(F)cccc2F)n2c1nc1ccccc12 | > 100 µM | > 100 µM | > 100 µM | > 100 µM | > 100 µM | > 100 µM | – | > 100 µM | > 100 µM | > 100 µM | > 100 µM | > 100 µM | – | – | > 100 µM | > 100 µM | – | – | > 100 µM
10 | COC(=O)[C@@H]1[C@H]2CC[C@]3(C)[C@@H](OC(C)=O)CC[C@H]3[C@@H]2CC[C@H]1C(C)=O | > 100 µM | > 100 µM | > 100 µM | > 100 µM | > 100 µM | > 100 µM | – | > 100 µM | > 100 µM | > 100 µM | > 100 µM | > 100 µM | – | – | > 100 µM | > 100 µM | – | – | > 100 µM
11 | CC1N=C(c2ccccc2)OC1=O (centres undefined) | > 100 µM | > 100 µM | > 100 µM | > 100 µM | > 100 µM | > 100 µM | – | > 100 µM | > 100 µM | > 100 µM | > 100 µM | > 100 µM | – | – | > 100 µM | > 100 µM | – | – | > 100 µM
12 | CCOc1nc2sc3c(c2c(=O)n1CCSSCCn1c(OCC)nc2sc4c(c2c1=O)CCCC4)CCCC3 | > 100 µM | > 100 µM | > 100 µM | > 100 µM | > 100 µM | > 100 µM | > 100 µM | > 100 µM | > 100 µM | > 100 µM | > 100 µM | > 100 µM | – | – | > 100 µM | > 100 µM | – | – | –
13 | Cc1cc(S(=O)(=O)NC2=NCC(C)(C)CN2)c(S)cc1Cl | 85.1 µM | > 100 µM | 87.6 µM | 51.1 µM | > 100 µM | > 100 µM | > 100 µM | > 100 µM | > 100 µM | 71.8 µM | > 100 µM | 71.6 µM | – | – | > 100 µM | > 100 µM | – | – | –
14 | CCCC(C(=O)Nc1cccc2[nH]cnc12)C(=O)OCC (centres undefined) | > 100 µM | > 100 µM | > 100 µM | > 100 µM | > 100 µM | > 100 µM | > 100 µM | > 100 µM | > 100 µM | > 100 µM | > 100 µM | > 100 µM | – | – | > 100 µM | > 100 µM | – | – | –
